Laboratory results published in US20060194740A1, “NOD1 as an anti-tumor agent” (priority 2005, published 2006).
Starred links: 1 amine or outer side, 2 acyl side, 3 side chain; linkers in the order of their positions; H or OH if unused. Non-standard residues stand in square brackets, D forms with d. Residues, ends and D or L forms follow the SMILES beside them. No end group written: not given here. *: point of attachment. mesoDAP = meso-diaminopimelic acid, O=C(O)[C@@H](CCC[C@H](N[*:1])C(=O)[*:2])N[*:3]; Diaminopimelic acid = diaminopimelic acid; Cbz = O=C(OCc1ccccc1)*; CH2F = FC*

Key:
[1] = test system: MCF-7 cells; assay: Propidium iodide exclusion cell death assay, wild-type (parental/Blasto) MCF-7 cells; type: cell-based, human; conditions: for sensitivity to cell death: parental versus C20 cells (data not shown)
Description: (§1) Cell viability assays. Propidium iodide exclusion assay: Cells were stimulated as indicated for 2 days. Subsequently, cells were harvested, washed twice in FACS buffer (PBS containing 1% FCS and 0.1% NaN3) and resuspended in propidium iodide (PI)—containing FACS buffer (4 ug/ml). The extent of cell death was analyzed with a FACSCalibur flow cytometer (Becton Dickinson, Mountain View, Calif.). DAPI staining: MCF-7 cells were plated in chamber slides, and stimulated for 2 days. Cells were washed with PBS and apoptotic nuclei were stained with 1 μg/ml DAPI (Sigma Chemical Co., St. Louis, Mo.). Cells were fixed in 4% paraformaldehyde and examined by fluorescence microscopy.
(§2) To further investigate the role of Nod1 in apoptosis, a variety of cell types were incubated with the Nod1 ligand, […] (γTriDAP), which specifically activates Nod1. The cell types tested included the parental MCF-7 cell line, the Nod1-deficient MCF-7C20 clone, and a cell line engineered to contain an additional human Nod1 allele (MCF-7Nod1) so that Nod1 was over-expressed. To determine whether the resistance of C20 cells to γTriDAP-induced apoptosis resulted from the absence of Nod1, human Nod1 was stably expressed in MCF-7 C20 cells to produce Nod1-sufficient C20 cells (C20/Nod1). As another control, the parental MCF-7 cell line was transfected with an empty retroviral vector to generate MCF-7 Blasto cells. Cells were treated with γTriDAP in the presence or absence of cycloheximide (CHX) and cell death was then determined by propidium iodide staining and flow cytometry.

[2] = test system: MCF-7 C20 cells; assay: 3H-thymidine proliferation assay, MCF-7 C20 cells; type: cell-based, human; conditions: tamoxifen added in the culture medium (data not shown)
Description: Retroviral transfections. The various genes used in this study were cloned into pMSCV-Blasto, pBabe-Puro or pBabe-Neo retroviral vectors. MCF-7 cells were stably transfected using available procedures. Briefly, amphotropic 293 cells were transfected with retroviral vectors encoding selected Nod1, Nod2 and other proteins. Twenty-four hours post-transfection, cells were incubated at 32° C. overnight to produce viral particles. Target cells were infected the next day with virus-containing 293 cell supernatants containing recombinant retroviral particles. Cells were selected with 10 μg/ml blasticidin S (Calbiochem EMD Biosciences Inc., San Diego, Calif.), 500 μg/ml […] (Invitrogen, Carlsbad, Calif.) or 5 μg/ml puromycin (Calbiochem). The expression of all constructs was confirmed by Western blot analysis. To determine the effects of 17β-estradiol (Calbiochem), cells were cultured in phenol red-free DMEM supplemented with […]. Cells were seeded in 96 well plates with various concentration of 17β-estradiol (E2) for 24 h and pulsed with ^3H-thymidine (1 μCi/well, MP Biomedicals, Irvine, Calif.). Cells were harvested on glass fiber filters and radioactivity measured by liquid scintillation. […]

[3] = test system: MCF7-C20Nod1 cells; assay: IL-8 production, MCF7-C20Nod1 cells; type: cell-based, human; conditions: wild-type Nod1 expressed in MCF7-C20Nod1 cells (FIG. 5C)
[4] = test system: poly(ADP-ribose)polymerase (PARP) and capases 6, 7, 8 and 9; assay: Western blot of PARP and caspase cleavage in MCF-7 cells; type: cell-based, human; conditions: 24 h (FIG. 3)
Description: (§3) Western blot analysis and immunoprecipitation. Cells were washed extensively and lysed using lysis buffer containing 50 mM Hepes, 100 mM NaCl, 2 mM EDTA, 10% glycerol, 1% Nonidet P-40, 14 μM pepstatin A, 100 uM leupeptin, 3 mM benzamidine, 1 mM PMSF, 1 mM sodium pyrophosphate, 10 mM sodium orthovanadate, 100 U/ml aprotinin, and 100 mM sodium fluoride. After incubation for 30 min on ice, cell lysates were centrifuged (14000 rpm, 10 min, 4° C.) and the supernatants were recovered. For immunoprecipitation, cell lysates were mixed with 5 μg of antibody for 3 hour at 4° C. under constant agitation. Immune complexes were allowed to bind to 20 μl protein A-Sepharose beads overnight, beads were washed three times with lysis buffer. Immunoprecipitates were separated on SDS-PAGE and transferred to PVDF membranes.
Further confirmation that γTriDAP induces apoptosis was obtained using two broad spectrum caspase inhibitors, z-VAD-FMK and Boc-D-FMK. Both z-VAD-FMK and Boc-D-FMK abrogated γTriDAP-induced cell death (FIG. 2D).

[5] = test system: MCF-7 C20 cells; assay: Propidium iodide exclusion cell death assay, Nod1-deficient MCF-7 C20 cells; type: cell-based, human
Description: as §1, with “Propidium iodide exclusion assay: Cells were stimulated as indicated for 2 days.” left out
as §2

[6] = test system: MCF-7 C20/Nod1 cells; assay: Propidium iodide exclusion apoptosis assay, MCF-7 C20/Nod1 cells; type: cell-based, human; conditions: γTriDAP/CHX (FIG. 12A)
Description: as §1, §2
To determine whether the presence of estrogens modulates Nod1-induced apoptotic pathway, cells were cultured in medium containing charcoal-treated serum.

[7] = test system: MCF-7 Nod1 cells; assay: Propidium iodide exclusion cell death assay, MCF-7 Nod1 cells over-expressing Nod1; type: cell-based, human; conditions: for effect on γTriDAP-induced apoptosis: inhibitor 100 uM, 30 min prior to γTriDAP/CHX for 48 h (FIG. 6A); for effect on γTriDAP-induced cell death: caspase inhibitor 50 uM, 30 min before γTriDAP/CHX for 48 h (FIG. 2D)
Description: as §1, §2

[8] = test system: MCF-7C20 cells; assay: IL-8 production, MCF-7C20 cells; type: cell-based, human; conditions: MCF-7C20 cells (data not shown)
[9] = test system: JNK; assay: JNK phosphorylation in MCF-7 RIP2 transfectants; type: cell-based, human; conditions: γTriDAP with cycloheximide for 2 h in wild type RIP2 or RIP2 KD cells (FIG. 7C)
Description: as §3
The effect of RIP2 expression on γTriDAP-induced JNK phosphorylation was also examined (FIG. 7C).

[10] = test system: MCF-7 Nod2 cells; assay: Propidium iodide apoptosis assay, MCF-7 Nod2 cells; type: cell-based, human; conditions: MDP plus CHX, 48 h (FIG. 5A)
Description: as §1
(§4) Experiments were also performed to ascertain whether activation of Nod2 by its specific activator, muramyl dipeptide (MDP), would initiate apoptosis in parental MCF-7 cells or in MCF-7 cells over-expressing Nod2 (MCF-7 Nod2). Thus, γTriDAP or MDP were added to each of these lines and apoptosis (FIG. 5A) and IL-8 production (FIG. 5C) were measured. […] Expression of Nod1 and Nod2 in MCF-7 stable transfectants was confirmed by immunoblotting (FIG. 5B).

[11] = test system: MCF-7 Nod2 cells; assay: IL-8 secretion ELISA, MCF-7 Nod2 cells; type: cell-based, human; conditions: 24 h (FIG. 5C)
Description: IL-8 ELISA. Concentrations of IL-8 in the culture supernatants of transfected HeLa cells were measured by ELISA using 96-well Immunlon plates (Dynatech Laboratories, Chantilly, Va.). ELISA was performed using the mAb MAB208 for capture and a biotinylated polyclonal rabbit anti-human IL-8 Ab (R&D Systems, Minneapolis, Minn.) followed by streptavidin HRP for detection.
as §4

[12] = test system: MCF-7 RIP2 KD cells; assay: Propidium iodide apoptosis assay, MCF-7 RIP2 KD cells; type: cell-based, human; conditions: cells expressing RIP2 KD; 20 μg/ml, CHX, 48 hr (FIG. 13A)
Description: as §1
Several RIP2 mutants were stably expressed in MCF-7 cells to evaluate the role of the RIP2 kinase activity in γTriDAP-induced apoptosis. Expression of RIP2 lacking its CARD domain completely abrogated Nod1-induced cell death (FIG. 7A). […] Cells expressing wild type RIP2 and RIP2 KD constructs were sensitive to lower concentrations of γTriDAP and died faster than cells expressing only Nod1 (FIG. 13C) or than parental MCF-7Blasto cells (data not shown).

[13] = biological target: human Nod1 stably expressed in cell lines (human) (UniProt Q9Y239); assay: cell-based or functional assay
[14] = biological target: endogenous NOD1 protein of parental MCF-7 cells (human) (UniProt Q9Y239); assay: cell-based or functional assay
[15] = biological target: Myc-NOD1 (human) (UniProt Q9Y239); assay: cell-based or functional assay
[16] = test system: SK-BR3; assay: Apoptosis by PI staining, SK-BR3 cells stably expressing Nod1; type: cell-based, human; conditions: SKBR3 cells; αTriDAP substituted for γTriDAP, with TNFα and cycloheximide (FIG. 9B)
Description: as §1
To determine if Nod1-dependent apoptosis occurs in other human cell lines, a series of epithelial cell lines were examined where Nod1 was stably expressed to enhance sensitivity to activation of the Nod1 pathway. Cells were treated with TNFα (T) and γTriDAP (γ) in the presence or absence of CHX (C) and monitored for viability by PI staining as a measure of apoptosis (Table 1).

[17] = agent alone, wild type cells (FIG. 2A)

CC/C(=C(\c1ccccc1)c1ccc(OCCN(C)C)cc1)c1ccccc1 [tamoxifen, reference compound]
effect on γTriDAP-induced cell death ([1]; tamoxifen prior to γTriDAP/CHX, MCF-7 cell lines (FIG. 12B)): partially blocked
effect on estrogen-induced proliferation [2]: blocked

D-Ala-L-Glu-Diaminopimelic acid ([dA]-Glu-[Diaminopimelic acid]; also: Glu gamma-carboxyl linked to DAP (γTriDAP))
γTriDAP-induced IL-8 production [3]: restored
proteolytic cleavage of PARP and capases 6, 7, 8 and 9 [4]: resulted in proteolytic cleavage
apoptosis ([5]; γTriDAP plus cycloheximide, MCF-7C20 without Nod1 expression): totally resistant
γTriDAP-induced apoptosis ([6]; with steroids): 80%
γTriDAP-induced apoptosis ([6]; without steroids (charcoal-treated serum)): 10%
cell death ([7]; combination of cycloheximide and γTriDAP, 48 h treatment, MCF-7Nod1 cells): ~60%
γTriDAP-induced IL-8 production [8]: inhibited
phosphorylation of JNK [9]: induced phosphorylation of JNK
cell death [1, 17]: No cell death
cell death ([1]; γTriDAP in the presence of cycloheximide, wild-type MCF-7, PI staining, flow cytometry (FIG. 2A)): about 25%

CC(=O)N[C@H]1C(O)O[C@H](CO)[C@@H](O)[C@@H]1O[C@H](C)C(=O)N[C@@H](C)C(=O)N[C@H](CCC(=O)O)C(N)=O (mixture of isomers) [MDP, muramyl dipeptide]
apoptosis [10]: did not undergo increased apoptosis
IL-8 secretion [11]: did result in IL-8 secretion
apoptosis [12]: effective at inducing high levels of apoptosis

COc1cccc2c1C(=O)c1c(O)c3c(c(O)c1C2=O)C[C@@](O)(C(=O)CO)C[C@@H]3O[C@H]1C[C@H](N)[C@H](O)[C@H](C)O1 [doxirubicin]
sensitivity to cell death [1]: equally sensitive

IETD
effect on γTriDAP-induced apoptosis [7]: marked inhibitory effects

C[C@@H]1C[C@@H]([C@H](O)CC2CC(=O)NC(=O)C2)C(=O)[C@@H](C)C1 [cycloheximide]
cell death [1, 17]: No cell death

CC[C@@]1(O)C(=O)OCc2c1cc1n(c2=O)Cc2cc3ccccc3nc2-1 [camptothecin]
sensitivity to cell death [1]: equally sensitive

TNFα
TNFα-induced apoptosis ([5]; MCF-7 C20 versus parent MCF-7 cells, TNF 0-40 ng/ml, 20 h (FIG. 1C)): significantly more resistant

D-Ala-L-Glu-Diaminopimelic acid (γTriDAP) (peptide)
γTriDAP-induced apoptosis; C20/Nod1 cells cultured with steroids [13]: 80%
γTriDAP-induced apoptosis; C20/Nod1 cells cultured without steroids [13]: 10%
cell death by propidium iodide staining and flow cytometry; wild-type MCF-7 cells, γTriDAP with cycloheximide [14]: 25%
cell death by propidium iodide staining and flow cytometry; MCF-7Nod1 cells, γTriDAP with cycloheximide, 48 h [15]: 60%

COC(=O)CC(NC(=O)OC(C)(C)C)C(=O)CF [Boc-D-FMK]
effect on γTriDAP-induced cell death [7]: abrogated

COC(=O)C[C@H](NC(=O)[C@H](C)NC(=O)[C@@H](NC(=O)OCc1ccccc1)C(C)C)C(=O)CF [z-VAD-FMK] (Cbz-Val-Ala-Asp(OMe)-CH2F)
effect on γTriDAP-induced cell death [7]: abrogated
effect on γTriDAP-induced apoptosis [7]: blocked γTriDAP-induced apoptosis nearly completely

αTriDAP: inactive control tri-peptide where mesoDAP was bound to Glu in the a position rather than in the γ position (Ala-Glu-[mesoDAP]; not fully specified (residue 1); also: DAP bound to Glu alpha-carboxyl (αTriDAP))
proteolytic cleavage of PARP and capases 6, 7, 8 and 9 [4]: not
apoptosis [16]: reduced apoptosis
cell death ([1]; incubated with MCF-7 cells in the presence of cycloheximide (FIG. 2A)): did not induce cell death
